According to patent US20030124167A1, “Pest controlling” (priority 1999, published 2003):

Test: Miscibility of pheromones with corn oil or triethylcitrate
Format: physicochemical
Excerpt: Miscibility of the active ingredient and diluents were further examined by forming mixtures of various active ingredients (pheromones) with corn oil or triethylcitrate. The final composition of the mixture produced was 40 vol. % pheromones and 60 vol. % diluent (i.e., corn oil or triethyl citrate). The individual pheromones evaluated were: tomato pinworm, pink bollworm, leafroller, oriental fruitmoth, and coddling moth.

C/C=C/C=C/CCCCCCCO [coddling moth]
Dissolution in both corn oil and triethyl citrate (pheromone solid at room temperature): dissolved freely | Miscibility in corn oil or triethylcitrate (room temperature, 40 vol. % pheromones/60 vol. % diluent): completely miscible
